Activity calls are given as the source filed them.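 Rule for the calls: active = EC50 no more than a set limit of log units above the highest dose; inactive = the rest.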
Target: S. pyogenes SKKanGAS, kanamycin survival, BacTiterGlo, 6 h
Assay: S. pyogenes SKKanGAS kanamycin growth inhibitors – SKKanGAS strain, luminescence, dose confirmation, streptokinase promoter inhibitor project, dose response (AID 1902);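 note: lower survival reflects blocked streptokinase promoter driving kanamycin resistance gene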

First: CC(=O)c1cccc2c(O)c(C3=Nc4ccccc4C3=O)[nH]c12
Second: Cc1ccccc1-c1cc2nc(-c3ccc([N+](=O)[O-])cc3)cc(=O)n2[nH]1
The EC50 of the first is 1.9-fold lower: 6.32 µM for the first, 11.9 µM for the second. The first is the more potent here.

Going from `COc1ccc(N=Nc2cc(-c3ccccc3)ccc2O)cc1` to `Cc1ccc(N=Nc2ccc(O)c3ncccc23)cc1`, the EC50 falls from 13.1 µM to 0.098 µM (130-fold). The second is the more potent here.

Going from `Cc1cc(NC(=O)c2ccc(C)s2)n(-c2nc3ccccc3[nH]2)n1` to `Cc1nc(Nc2nc(-c3ccccc3)cc(=O)[nH]2)nc2ccccc12`, the EC50 rises from 3.44 µM to 5.67 µM (1.6-fold). The first is the more potent here.

`O=C(Cc1csc(Nc2nc(=S)[nH]c3ccccc23)n1)NCCCN1CCN(c2cccc(Cl)c2)CC1` and `Cc1[nH]c(-c2ccc(F)cc2)cc1C(=O)N1CCN(c2cccc(Cl)c2)CC1` are within 1.5-fold of each other in EC50: 6.12 µM for the first, 4.92 µM for the second.

Compared with `O=C(Cc1ccc([N+](=O)[O-])cc1)N/N=C/c1ccc([N+](=O)[O-])o1`, `CCCCCCCCCc1nc2sc3c(c2c(=O)n1NC(=O)c1ccc([N+](=O)[O-])cc1)CC(C)(C)OC3` is 2.8-fold lower in EC50: 9.86 µM for the first, 3.5 µM for the second.

Compared with `CC(C)C[C@H](NC(=O)c1[nH]cnc1C(=O)N[C@@H](Cc1ccccc1)C(=O)OC(C)(C)C)C(=O)OC(C)(C)C`, `CCOc1ccccc1C(=O)OCC(=O)Nc1nnc(-c2ccccc2)o1` is 3.3-fold higher in EC50: 2.1 µM for the first, 6.94 µM for the second.

Going from `N#CC1=C(N)SC(N)=C(C#N)C1c1c(Cl)cccc1Cl` to `Cn1ncc2c(Nc3cccc(Cl)c3)nc(Nc3cccc(Cl)c3)nc21`, the EC50 falls from 8.78 µM to 2.67 µM (3.3-fold). The second is the more potent here.

`O=C(CSc1nc2c(cnn2-c2ccccc2)c(=O)[nH]1)N1N=C(c2cccs2)CC1c1ccc(F)cc1` (stereo unspecified) and `O=S(=O)(Nc1ccc(-c2csc(-c3ccccc3)n2)cc1)c1ccc(F)cc1` are within 1.5-fold of each other in EC50: 1.62 µM for the first, 1.92 µM for the second.

`CCCCN(CCCC)c1nc(-c2ccncc2)nc2ccccc12` and `CC(C)Cn1c(N)c(C(=O)NCc2cccs2)c2nc3ccccc3nc21` are within 1.5-fold of each other in EC50: 4.24 µM for the first, 5.37 µM for the second.

Going from `O=c1[nH]c(=O)n([C@H]2C[C@H](O)[C@@H](CO)O2)cc1F` to `CC[C@H]1OC(=O)C[C@@H](O)[C@H](C)[C@@H](O[C@@H]2O[C@H](C)C[C@H](N(C)C)[C@H]2O)[C@@H](CC=O)C[C@@H](C)C(=O)C=C[C@]2(C)O[C@H]2[C@@H]1C`, the EC50 falls from 0.689 µM to < 0.06 µM.

Going from `C/C(=N\Nc1nc(N2CCCCCC2)nc(N2CCCCCC2)n1)c1ccccc1` to `O=C(Nc1nc(-c2ccccn2)cs1)c1ccc(S(=O)(=O)N2CCCCC2)cc1`, the EC50 falls from 3.69 µM to 1.48 µM (2.5-fold).

Going from `Cc1cc(=O)c(C(=O)O)cn1Nc1ccc(Cl)cc1` to `CC(Oc1ccc(Cl)cc1)C(=O)NNC(=S)NC(=O)c1ccco1` (stereo unspecified), the EC50 falls from 2.36 µM to 0.325 µM (7.3-fold).

Compared with `Cc1cccc(NC(=O)C2SC(=Nc3c(C)cccc3C)C(C(=O)N3CCOCC3)=C2N)c1` (stereo unspecified), `COc1cc(OC)c(NC(=O)c2sc3ncn(CC(=O)N4CCN(c5ccccn5)CC4)c(=O)c3c2C)cc1Cl` is 2.7-fold higher in EC50: 2.44 µM for the first, 6.52 µM for the second. The first is the more potent here.

Going from `C/C(=N\NC(=O)c1cc2ccccc2cc1O)c1cccs1` to `COc1ccc(C(=O)Nc2cccc(/C=C(\CCC(=O)O)c3nc4ccccc4s3)c2)cc1`, the EC50 falls from 12.5 µM to 8.09 µM (1.5-fold). The second is the more potent here.

`O=C(Nc1cccc(C(F)(F)F)c1)Oc1ccc(Cl)c2cccnc12` and `Cc1ccc(S(=O)(=O)Nc2cccc3ncccc23)s1` are within 1.5-fold of each other in EC50: 1.94 µM for the first, 2.87 µM for the second.

Going from `CCCn1c(NC(=O)C23CC4CC(CC(O)(C4)C2)C3)nc2ccccc21` to `CCCn1c(NC(=O)c2ccc(Cl)c(S(=O)(=O)N3CCCC3)c2)nc2ccccc21`, the EC50 falls from 3.09 µM to 1.67 µM (1.9-fold). The second is the more potent here.

Compared with `CN1C(=O)/C(=C/c2ccccc2Cl)Sc2ccc(C(=O)NCc3cccnc3)cc21`, `Cc1cc(C(=O)Nc2nc(-c3ccccn3)cs2)ccc1[N+](=O)[O-]` is 2.8-fold lower in EC50: 4.69 µM for the first, 1.69 µM for the second.

First: CC(=O)NNC(=S)NC(=O)C(c1ccccc1)c1ccccc1
Second: CCN(CC)c1ccc(C(=O)OCc2cc(=O)oc3cc(O)ccc23)cc1
The EC50 of the first is 18-fold lower: 0.853 µM for the first, 15.3 µM for the second. The first is the more potent here.

Compared with `O=C(NCc1ccc(F)cc1)C(=O)Nc1nc(C23CC4CC(CC(C4)C2)C3)cs1`, `CCOC(=O)c1csc(Nc2nc3ccc(F)cc3s2)n1` is 5-fold higher in EC50: 0.637 µM for the first, 3.21 µM for the second. The first is the more potent here.

`Nc1nonc1-n1nnc(C(=O)N/N=C/c2cc(Cl)ccc2O)c1CN1CCCCCC1` and `Cc1ccc(Cn2nnc3c(=O)[nH]c(C4CCN(S(=O)(=O)c5cc(C)ccc5C)CC4)nc32)cc1` are within 1.5-fold of each other in EC50: 5.76 µM for the first, 6.26 µM for the second.

Going from `CC(C)(C)C1CCC2(CC1)C(C#N)=C(SCC(=O)Nc1ccccc1)NC(=O)C2C#N` (stereo unspecified) to `COc1ccc(-c2coc3c(C)c4oc(=O)c(CCC(=O)O)c(C)c4cc23)cc1`, the EC50 falls from 4.25 µM to 2.13 µM (2-fold).

Compared with `C=C1c2cccc(O)c2C(O)=C2C(=O)[C@]3(O)C(O)=C(C(N)=O)C(=O)[C@@H](N(C)C)[C@@H]3[C@@H](O)[C@H]12`, `O=c1cc2oc3cc(O)c(O)cc3c(-c3ccccc3[N+](=O)[O-])c-2cc1O` is 100-fold higher in EC50: 0.093 µM for the first, 9.36 µM for the second.

Compared with `CCCCCC(=O)Cc1cc(O)cc2c1C(=O)Oc1cc(O)c(C(=O)O)c(CCCCC)c1O2`, `Cc1[nH]nc(Nc2ccc(C(C)C)cc2)c1[N+](=O)[O-]` is 2.1-fold higher in EC50: 6.67 µM for the first, 13.8 µM for the second.

`COc1ccc(CNCC(O)(c2ccc(Cl)cc2)c2ccc(Cl)cc2)cc1` gave an EC50 of 3.51 µM.

In the case of `COc1cccc(C(=O)NC(=S)N2CCN(c3ccc(C(F)(F)F)cc3[N+](=O)[O-])CC2)c1`, the EC50 is reported as > 15 µM (inactive).
`COCC1CCN(C(=O)c2ccc3oc(Cc4ccccc4)nc3c2)C1` (stereo unspecified) was tested, and the EC50 was > 15 µM (inactive).
`O=C(O)CCSc1ccc([N+](=O)[O-])cc1[N+](=O)[O-]` was tested, and the EC50 was > 15 µM (inactive).
In the case of `O=C1N/C(=N\c2ccccn2)SC1Cc1ccc(Cl)cc1` (stereo unspecified), the EC50 is reported as > 15 µM (inactive).
